# Measurements from patent US20010021697A1, “METHODS AND COMPOSITIONS FOR THE TREATMENT OF MAMMALIAN INFECTIONS EMPLOYING MEDICAMENTS COMPRISING HYMENOPTERA VENOM, PROTEINAGEOUS OR POLYPEPTIDE COMPONENTS THEREOF, OR ANALOGUES OF SUCH PROTEINACEOUS OR POLYPEPTIDE COMPONENTS” (priority 1987, published 2001).
# Several values for one entry are separate records, joined by “and”; a condition that tells them apart may be missing. Identical values can stand only once.
# What was measured:
# Assay type in all cases: cell-based
# [1] = tested on: kanamycin resistant S. aureus; assay: Checkerboard titration assay for synergy of honeybee venom with antibiotics (OD660 growth curves)
# Escherichia coli = assay: Growth curves with polymyxin B and bumble bee, yellowjacket or baldfaced hornet venom; details: for optical density, AVERAGE: AVERAGE line; for optical density: single replicates
# Description: The activity of hymenoptera venom other than HBV was also determined for bumblee venom, yellow jacket venom and bald faced hornet venom, as shown below in Tables 8, 9
# [2] = tested on: E. Coli strain No. G1108E; assay: Checkerboard titration synergy assay of natural melittin and analogue #6 with polymyxin B
# E. coli G1108E = assay: Checkerboard titration synergy assay of melittin analogues with polymyxin B; details: polymyxin B 6 units/ml, peptide 5 ug/ml, n = 6
# [3] = 0 hours after innoculation, YJ 5 ug/ml, BF 5 ug/ml, Pol B 3.125 U/ml alone, Pol B 5 U/ml in the combinations
# [4] = 0 hours after innoculation, doses of what is present: Pol B 3.125 Units/ml, BB Venom 5 ug/ml
# [5] = 0 hours after innoculation, doses of what is present: Pol B 6.25 Units/ml, BB Venom 20 ug/ml
# [6] = 2 hours after innoculation, YJ 5 ug/ml, BF 5 ug/ml, Pol B 3.125 U/ml alone, Pol B 5 U/ml in the combinations
# [7] = 2 hours after innoculation, doses of what is present: Pol B 3.125 Units/ml, BB Venom 5 ug/ml
# [8] = 2 hours after innoculation, doses of what is present: Pol B 6.25 Units/ml, BB Venom 20 ug/ml
# [9] = 4 hours after innoculation, YJ 5 ug/ml, BF 5 ug/ml, Pol B 3.125 U/ml alone, Pol B 5 U/ml in the combinations
# [10] = 4 hours after innoculation, doses of what is present: Pol B 3.125 Units/ml, BB Venom 5 ug/ml
# [11] = 4 hours after innoculation, doses of what is present: Pol B 6.25 Units/ml, BB Venom 20 ug/ml
# [12] = 6 hours after innoculation, YJ 5 ug/ml, BF 5 ug/ml, Pol B 3.125 U/ml alone, Pol B 5 U/ml in the combinations
# [13] = 6 hours after innoculation, doses of what is present: Pol B 3.125 Units/ml, BB Venom 5 ug/ml
# [14] = 8 hours after innoculation, YJ 5 ug/ml, BF 5 ug/ml, Pol B 3.125 U/ml alone, Pol B 5 U/ml in the combinations
# [15] = 8 hours after innoculation, doses of what is present: Pol B 3.125 Units/ml, BB Venom 5 ug/ml
# [16] = 8 hours after innoculation, doses of what is present: Pol B 6.25 Units/ml, BB Venom 20 ug/ml
# [17] = 12 hours after innoculation, YJ 5 ug/ml, BF 5 ug/ml, Pol B 3.125 U/ml alone, Pol B 5 U/ml in the combinations
# [18] = 12 hours after innoculation, doses of what is present: Pol B 3.125 Units/ml, BB Venom 5 ug/ml
# [19] = 12 hours after innoculation, doses of what is present: Pol B 6.25 Units/ml, BB Venom 20 ug/ml
substance,measurement,setting,value
Polymyxin B,MEAN A660,"[1]; POLY B = 50, HBV = 0, T4",0.208
same,MEAN A660,"[1]; POLY B = 50, HBV = 0, T6",0.376
same,MEAN A660,"[1]; POLY B = 50, HBV = 0, T8",0.567
same,MEAN A660,"[1]; POLY B = 50, HBV = 0, T12",0.841
same,MEAN A660,"[1]; POLY B = 50, HBV = 0, T24",0.968
same,MEAN A660,"[1]; POLY B = 100, HBV = 0, T0",0.009
same,MEAN A660,"[1]; POLY B = 100, HBV = 0, T2",0.068
same,MEAN A660,"[1]; POLY B = 100, HBV = 0, T4",0.243
same,MEAN A660,"[1]; POLY B = 100, HBV = 0, T6",0.629
same,MEAN A660,"[1]; POLY B = 100, HBV = 0, T8",0.835
same,MEAN A660,"[1]; POLY B = 100, HBV = 0, T12",1.008
same,MEAN A660,"[1]; POLY B = 100, HBV = 0, T24",1.048
same,"optical density, AVERAGE",Escherichia coli; [3],.038
same,optical density,Escherichia coli; [3],.038
same,"optical density, AVERAGE",Escherichia coli; [4],.030
same,optical density,Escherichia coli; [4],.030
same,"optical density, AVERAGE",Escherichia coli; [5],.030
same,optical density,Escherichia coli; [5],.030
same,"optical density, AVERAGE",Escherichia coli; [6],.480
same,optical density,Escherichia coli; [6],.477 and .482
same,"optical density, AVERAGE",Escherichia coli; [7],.649
same,optical density,Escherichia coli; [7],.654 and .642 and .652
same,"optical density, AVERAGE",Escherichia coli; [8],.023
same,optical density,Escherichia coli; [8],.022 (2×) and .024
same,"optical density, AVERAGE",Escherichia coli; [9],1.03
same,optical density,Escherichia coli; [9],1.03
same,"optical density, AVERAGE",Escherichia coli; [10],1.02
same,optical density,Escherichia coli; [10],1.03 and 1.02 (2×)
same,"optical density, AVERAGE",Escherichia coli; [11],.251
same,optical density,Escherichia coli; [11],.102 and .472 and .180
same,"optical density, AVERAGE",Escherichia coli; [12],1.07
same,optical density,Escherichia coli; [12],1.07
same,"optical density, AVERAGE",Escherichia coli; [13],1.03
same,optical density,Escherichia coli; [13],1.03
same,"optical density, AVERAGE","Escherichia coli; 6 hours after innoculation, doses of what is present: Pol B 6.25 Units/ml, BB Venom 20 ug/ml",.827
same,"optical density, AVERAGE",Escherichia coli; [14],1.08
same,optical density,Escherichia coli; [14],1.08
same,"optical density, AVERAGE",Escherichia coli; [15],1.04
same,optical density,Escherichia coli; [15],1.04
same,"optical density, AVERAGE",Escherichia coli; [16],.960
same,optical density,Escherichia coli; [16],.960 and .950 and .970
same,"optical density, AVERAGE",Escherichia coli; [17],1.14
same,optical density,Escherichia coli; [17],1.14
same,"optical density, AVERAGE",Escherichia coli; [18],1.13
same,optical density,Escherichia coli; [18],1.12 and 1.14 (2×)
same,"optical density, AVERAGE",Escherichia coli; [19],1.03
same,optical density,Escherichia coli; [19],1.03 (2×) and 1.04
same,Average optical densities (OD660),"[2]; 0 hrs, doses of what is present: Polymyxin B 3 units, peptide 5 ug",.013
same,Average optical densities (OD660),"[2]; 0 hrs, doses of what is present: Polymyxin B 6 units, peptide 10 ug",.013
same,Average optical densities (OD660),"[2]; 2 hrs, doses of what is present: Polymyxin B 3 units, peptide 5 ug",.072
same,Average optical densities (OD660),"[2]; 2 hrs, doses of what is present: Polymyxin B 6 units, peptide 10 ug",.072
same,Average optical densities (OD660),"[2]; 4 hrs, doses of what is present: Polymyxin B 3 units, peptide 5 ug",.808
same,Average optical densities (OD660),"[2]; 4 hrs, doses of what is present: Polymyxin B 6 units, peptide 10 ug",.423
same,Average optical densities (OD660),"[2]; 6 hrs, doses of what is present: Polymyxin B 3 units, peptide 5 ug",1.06
same,Average optical densities (OD660),"[2]; 6 hrs, doses of what is present: Polymyxin B 6 units, peptide 10 ug",.840
same,Average optical densities (OD660),"[2]; 8 hrs, doses of what is present: Polymyxin B 3 units, peptide 5 ug",1.08
same,Average optical densities (OD660),"[2]; 8 hrs, doses of what is present: Polymyxin B 6 units, peptide 10 ug",.911
same,Average optical densities (OD660),"[2]; 12 hrs, doses of what is present: Polymyxin B 3 units, peptide 5 ug",1.15
same,Average optical densities (OD660),"[2]; 12 hrs, doses of what is present: Polymyxin B 6 units, peptide 10 ug",.930
same,"Optical densities (OD660), mean",E. coli G1108E; 0 hours after culture inoculation,.007
same,"Optical densities (OD660), mean",E. coli G1108E; 2 hours after culture inoculation,.088
same,"Optical densities (OD660), mean",E. coli G1108E; 4 hours after culture inoculation,.470
same,"Optical densities (OD660), mean",E. coli G1108E; 6 hours after culture inoculation,.926
same,"Optical densities (OD660), mean",E. coli G1108E; 8 hours after culture inoculation,1.02
same,"Optical densities (OD660), mean",E. coli G1108E; 10 hours after culture inoculation,1.04
same,"Optical densities (OD660), mean",E. coli G1108E; 12 hours after culture inoculation,1.06
